Data from patent US20180161338A1, “RETOSIBAN FOR THE TREATMENT OF PRE-TERM LABOUR” (priority 2014, published 2018).
Bridge positions count the residues as written; N and C are the ends. Square brackets hold non-standard residues; d marks the D form. Peptide text beside a SMILES is read from it. Orn = NCCC[C@H](N)C(=O)O; Mpa = O=C(O)CCS

What was measured:
[1] = tested on: Human myometrial strips; assay: Maximal contractile responses to KCl and oxytocin of myometrial strips cultured under low or high stretch; assay type: cell-based; settings: for median fold change with retosiban, maximal response to KCl / median fold change with retosiban, maximal response to oxytocin: retosiban versus vehicle
Procedure: Human myometrial strips (obtained from non-labouring patients undergoing routine elective caesarean section at term) were cultured in medium (phenol red free DMEM supplemented with 10% charcoal stripped foetal calf serum, 2 mM L-glutamine and antibiotics) in an incubator (37° C., humidified 5% CO2) under conditions of low stretch (0.6 g mass) or high stretch (2.4 g mass). Half of the strips in both the low and high stretch groups were incubated with […] retosiban (diluted in DMSO). The remaining strips (paired samples from the same patient) were incubated DMSO.
After 20-24 hours incubation, myometrial contractility of the strips was studied as described previously (J Physiol 2012; 590(Pt9): 2081-2093). Briefly, tension was initially set at 2 g for all strips. Strips were washed with fresh Krebs after 15 and 30 min and the tension reset to 2 g. After a further hour of washes (every 15 min), the issue was treated with 50 mM KCl (50 mM, 5-7 min). This was washed, the tissue allowed to recover and then a cumulative concentration response curve to oxytocin (up to 100 nM) was obtained. Maximal responses to KCl and oxytocin were normalized to strip wet weight. The mean normalized responses of duplicate strips were calculated for the four different groups (low stretch with retosiban, low stretch with vehicle, high stretch with retosiban, high stretch with vehicle). Effects were expressed as fold change i.e. the ratio of normalized responses in the experimental and control conditions from different strips obtained from the same person. pEC50 values were calculated using analysis of the area under the curve for each concentration of oxytocin.
Since the data were expressed as fold changes, all ratios were log transformed and normal distribution following log transformation was assessed using the Sharpiro-Wilk test. The null hypothesis was that there was no change in the mean normalized responses with a given intervention. […] Continuous associations were assessed using linear regression of log transformed fold changes. For the analysis of pEC50 Student's paired t-test was used.

[2] = tested on: pre-term labour in singleton pregnancies; settings: cited from earlier work
[3] = tested on: asymptomatic women with a short cervix pregnant with a single foetus; settings: daily administration; cited from earlier work
[4] = tested on: women pregnant with twins; settings: prophylactic administration; cited from earlier work
[5] = tested on: pre-term labour in twin pregnancies; settings: isolated reports, not placebo controlled; cited from earlier work

Compound: CC[C@H](C)[C@@H]1C(=O)N[C@H](C2Cc3ccccc3C2)C(=O)N1[C@@H](C(=O)N1CCOCC1)c1coc(C)n1 [retosiban, (3R,6R)-3-(2,3-dihydro-1H-inden-2-yl)-1-[(1R)-1-(2-methyl-1,3-oxazol-4-yl)-2-(morpholin-4-yl}-2-oxoethyl]-6-[(1S)-1-methylpropyl]-2,5-piperazinedione]
- median fold change with retosiban, maximal response to KCl ([1]; high stretch (2.4 g), n=12): 0.74
- median fold change with retosiban, maximal response to oxytocin ([1]; high stretch (2.4 g), n=12): 0.71
- median fold change with retosiban, maximal response to KCl ([1]; low stretch (0.6 g), n=12): 1.00
- median fold change with retosiban, maximal response to oxytocin ([1]; low stretch (0.6 g), n=12): 0.97
- relationship between the effect of stretch and the effect of retosiban on responses to KCl and oxytocin ([1]; per patient, FIG. 3): the greater was the reduction in response induced by retosiban
- fold change with stretch (high stretch compared with low stretch), maximal response to KCl ([1]; strips incubated with 1 mM retosiban 20-24 h, retosiban removed, 50 mM KCl, n=12): 1.14
- fold change with stretch (high stretch compared with low stretch), maximal response to oxytocin ([1]; strips incubated with 1 mM retosiban 20-24 h, retosiban removed, oxytocin up to 100 nM, n=12): 1.14
- increase in days to delivery relative to placebo (mean) ([2]; phase II clinical study): 8.2 days
- response rate or percentage of women achieving uterine quiescence ([2]; ≤4 contractions/h with no change in cervical dilation >1 cm at 5-6 h, depending upon route of administration/dose): 50-57%

Compound: CC(=O)[C@H]1CC[C@H]2[C@@H]3CCC4=CC(=O)CC[C@]4(C)[C@H]3CC[C@]12C [vaginal progesterone, progesterone]
- reduction of the frequency of birth before 34 weeks of gestation [3]: more than 40%

Compound: CCCCCC(=O)O[C@]1(C(C)=O)CC[C@H]2[C@@H]3CCC4=CC(=O)CC[C@]4(C)[C@H]3CC[C@@]21C [17-α hydroxyprogesterone caproate]
- reduction in the frequency of pre-term birth [4]: no reduction

Compound: CCOc1ccc(C[C@H]2NC(=O)CCSSC[C@@H](C(=O)N3CCC[C@H]3C(=O)N[C@@H](CCCN)C(=O)NCC(N)=O)NC(=O)[C@H](CC(N)=O)NC(=O)[C@H]([C@@H](C)O)NC(=O)[C@H]([C@@H](C)CC)NC2=O)cc1 [atosiban] ([Mpa][dY](Et)ITNCP[Orn]G-NH2; disulfide 1-6)
- treatment of pre-term labour in twin pregnancies [5]: used successfully
